What was measured:
[1] = Resistance index, ratio of IC50 for human K562/ADR cells to IC50 for human K562 cells; type: functional
K562/Adr [2] = experiment: Potency index, ratio of doxorubicin IC50 to compound IC50 for human K562/ADR cells; type: functional
K562/Adr [3] = experiment: Cytotoxicity against human K562/ADR cells incubated for 72 hrs by CCK8 assay; type: functional, cell-based
K562 [4] = experiment: Cytotoxicity against human K562 cells incubated for 72 hrs by CCK8 assay; type: functional, cell-based; details: K562, 72 h
K562 [5] = experiment: Potency index, ratio of doxorubicin IC50 to compound IC50 for human K562 cells; type: functional
HepG2 [6] = experiment: Antiproliferative activity against human HepG2 cells incubated for 3 days by MTT assay; type: functional, cell-based; details: HepG2, 72 h
HCT-116 = experiment: Antiproliferative activity against human HCT116 cells incubated for 3 days by MTT assay; type: functional, cell-based; details: HCT-116, 72 h
A549 [7] = experiment: Antiproliferative activity against human A549 cells incubated for 3 days by MTT assay; type: functional, cell-based; details: A549, 72 h
HeLa [8] = experiment: Antiproliferative activity against human HeLa cells by MTT assay; type: functional, cell-based
K562/A02 = experiment: Antiproliferative activity against human K562/A02 cells by MTT assay; type: functional, cell-based
Huh-7 = experiment: Antiproliferative activity against human Huh7 cells incubated for 48 hrs by MTT assay; type: functional, cell-based; details: Huh-7, 48 h
MCF7 [9] = experiment: Antiproliferative activity against human MCF7 cells incubated for 48 hrs by MTT assay; type: functional, cell-based; details: MCF7, 48 h
BGC-823 = experiment: Antiproliferative activity against human BGC-823 cells incubated for 48 hrs by MTT assay; type: functional, cell-based; details: BGC-823, 48 h
A549 [10] = experiment: Antiproliferative activity against human A549 cells incubated for 48 hrs by MTT assay; type: functional, cell-based; details: A549, 48 h
HeLa [11] = experiment: Antiproliferative activity against human HeLa cells incubated for 48 hrs by MTT assay; type: functional, cell-based
L02 [12] = experiment: Cytotoxicity against human HL7702 cells incubated for 48 hrs by MTT assay; type: cell-based; details: L02, 48 h
HepG2 [13] = experiment: Antiproliferative activity against human HepG2 cells incubated for 48 hrs by MTT assay; type: functional, cell-based; details: HepG2, 48 h
K562/VCR = experiment: Cytotoxicity against human K562/VCR cells incubated for 72 hrs by CCK8 assay; type: functional, cell-based
K562/Adr [14] = experiment: Antiproliferative activity against human K562/ADR cells incubated for 72 hrs by CCK8 assay; type: functional, cell-based
K562 [15] = experiment: Antiproliferative activity against human K562 cells incubated for 72 hrs by CCK8 assay; type: functional, cell-based; details: K562, 72 h
K562/Adr [16] = experiment: Potency index, ratio of etoposide IC50 to test compound IC50 for antiproliferative activity against human K562/ADM cells; type: functional
K562 [17] = experiment: Potency index, ratio of etoposide IC50 to test compound IC50 for antiproliferative activity against human K562 cells; type: functional
A549 [18] = experiment: Antiproliferative activity against human A549 cells incubated for 72 hrs by MTT assay; type: functional, cell-based; details: A549, 72 h
MCF7 [19] = experiment: Antiproliferative activity against human MCF7 cells incubated for 72 hrs by MTT assay; type: functional, cell-based; details: MCF7, 72 h
HepG2 [20] = experiment: Antiproliferative activity against human HepG2 cells incubated for 72 hrs by MTT assay; type: functional, cell-based; details: HepG2, 72 h
SK-OV-3 = experiment: Antiproliferative activity against human SK-OV-3 cells incubated for 72 hrs by MTT assay; type: functional, cell-based; details: SK-OV-3, 72 h
B16-F10 = experiment: Antiproliferative activity against mouse B16/F10 cells incubated for 72 hrs by MTT assay; type: functional, cell-based; details: B16-F10, 72 h
HeLa [21] = experiment: Antiproliferative activity against human HeLa cells incubated for 72 hrs by MTT assay; type: functional, cell-based
CT26 = experiment: Antiproliferative activity against […] cells incubated for 72 hrs by MTT assay; type: functional, cell-based; details: Mus musculus, CT26, 72 h
L02 [22] = experiment: Cytotoxicity against human L02 cells; type: cell-based
A549 [23] = experiment: Antiproliferative activity against human A549 cells incubated for 24 hrs by MTT assay; type: functional, cell-based; details: A549, 24 h
HeLa [24] = experiment: Antiproliferative activity against human HeLa cells incubated for 24 hrs by MTT assay; type: functional, cell-based
MCF7 [25] = experiment: Antiproliferative activity against human MCF7 cells incubated for 24 hrs by MTT assay; type: functional, cell-based; details: MCF7, 24 h
HepG2 [26] = experiment: Antiproliferative activity against human HepG2 cells incubated for 24 hrs by MTT assay; type: functional, cell-based; details: HepG2, 24 h
SMMC-7721 = experiment: Antiproliferative activity against human SMMC-7721 cells incubated for 48 hrs by MTT assay; type: functional, cell-based; details: SMMC-7721, 48 h
SW480 = experiment: Antiproliferative activity against human SW480 cells incubated for 48 hrs by MTT assay; type: functional, cell-based; details: SW480, 48 h
HL-60 = experiment: Antiproliferative activity against human HL-60 cells incubated for 48 hrs by MTT assay; type: functional, cell-based; details: HL-60, 48 h

COc1cc([C@@H]2c3cc4c(cc3[C@@H](OC(=O)/C=C/c3ccccc3)[C@H]3COC(=O)[C@H]23)OCO4)cc(OC)c1OC
Ratio IC50 [1]: 1.1 | Ratio IC50 (K562/Adr [2]): 2.2 | IC50 (K562/Adr [3]): 11 nM | IC50 (K562 [4]): 11 nM | Ratio IC50 (K562 [5]): 2.2

COc1cc([C@@H]2c3cc4c(cc3[C@@H](NC(=S)NC(=O)c3cccs3)[C@H]3COC(=O)[C@H]23)OCO4)cc(OC)c1OC
IC50 (HepG2 [6]): 100 nM | IC50 (HCT-116): 100 nM | IC50 (A549 [7]): 100 nM

C=CC(=O)O[C@@H]1c2cc3c(cc2[C@@H](c2cc(OC)c(OC)c(OC)c2)[C@H]2C(=O)OC[C@@H]21)OCO3
Ratio IC50 [1]: 1.1 | Ratio IC50 (K562/Adr [2]): 2.2 | IC50 (K562/Adr [3]): 11 nM | IC50 (K562 [4]): 11 nM | Ratio IC50 (K562 [5]): 2.2

COc1cc([C@@H]2c3cc4c(cc3[C@@H](NCc3cc5cc(F)ccc5[nH]3)[C@H]3COC(=O)[C@H]23)OCO4)cc(OC)c1OC
IC50 (HeLa [8]): 100 nM | IC50 (K562/A02): 100 nM

COc1cc([C@@H]2c3cc4c(cc3[C@@H](Nc3ncccc3C)[C@H]3COC(=O)[C@H]23)OCO4)cc(OC)c1OC
IC50 (Huh-7): 60 nM | IC50 (MCF7 [9]): 60 nM | IC50 (BGC-823): 60 nM | IC50 (A549 [10]): 60 nM | IC50 (HeLa [11]): 60 nM

COc1cc([C@@H]2c3cc4c(cc3[C@@H](Sc3ncnc5nc[nH]c35)[C@H]3COC(=O)[C@H]23)OCO4)cc(OC)c1OC
IC50 (L02 [12]): 300 nM | IC50 (HepG2 [13]): 300 nM | IC50 (BGC-823): 300 nM | IC50 (A549 [10]): 300 nM

COc1cc([C@@H]2c3cc4c(cc3[C@H](OC(=O)c3ccc5cc[nH]c5c3)[C@H]3COC(=O)[C@H]23)OCO4)cc(OC)c1OC
IC50 (K562 [4]): 81 nM | IC50 (K562/VCR): 81 nM

COc1ccc2[nH]c(CN[C@@H]3c4cc5c(cc4[C@@H](c4cc(OC)c(OC)c(OC)c4)[C@H]4C(=O)OC[C@@H]43)OCO5)cc2c1
IC50 (HeLa [8]): 100 nM | IC50 (K562/A02): 100 nM

COc1cc([C@@H]2c3cc4c(cc3[C@H](OCC(=O)N3C(=O)C(=O)c5ccc(Cl)cc53)[C@H]3COC(=O)[C@H]23)OCO4)cc(OC)c1OC
IC50 (K562/Adr [14]): 19 nM | IC50 (K562 [15]): 19 nM | Ratio IC50 (K562/Adr [16]): 8.8 | Ratio IC50 (K562 [17]): 8.8

COc1cc([C@@H]2c3cc4c(cc3[C@H](OC(=O)Cc3c[nH]c5ccccc35)[C@H]3COC(=O)[C@H]23)OCO4)cc(OC)c1OC
IC50 (K562 [4]): 43 nM | IC50 (K562/VCR): 202 nM

COc1cc([C@@H]2c3cc4c(cc3[C@@H](Nc3ncccc3C)[C@H]3COC(=O)[C@H]23)OCO4)cc(OC)c1O
IC50 (Huh-7): 60 nM | IC50 (MCF7 [9]): 60 nM | IC50 (BGC-823): 60 nM | IC50 (A549 [10]): 60 nM | IC50 (HeLa [11]): 60 nM

COc1ccc(-c2coc3cc(OCCCC(=O)O[C@@H]4c5cc6c(cc5[C@@H](c5cc(OC)c(OC)c(OC)c5)[C@H]5C(=O)OC[C@@H]54)OCO6)ccc3c2=O)cc1
IC50 (A549 [18]): 213 nM | IC50 (MCF7 [19]): 213 nM | IC50 (HepG2 [20]): 213 nM | IC50 (SK-OV-3): 213 nM | IC50 (B16-F10): 213 nM | IC50 (HeLa [21]): 213 nM | IC50 (CT26): 213 nM

COc1cc([C@@H]2c3cc4c(cc3[C@@H](NC(=S)NC(=O)c3ccccc3Cl)[C@H]3COC(=O)[C@H]23)OCO4)cc(OC)c1OC
IC50 (HepG2 [6]): 100 nM | IC50 (HCT-116): 100 nM | IC50 (A549 [7]): 100 nM

COc1ccc(-c2nnc(SCC(=O)O[C@H]3c4cc5c(cc4[C@@H](c4cc(OC)c(OC)c(OC)c4)[C@H]4C(=O)OC[C@@H]43)OCO5)o2)cc1
IC50 (L02 [22]): 92400 nM | IC50 (A549 [23]): 2540 nM | IC50 (HeLa [24]): 2540 nM | IC50 (MCF7 [25]): 2540 nM | IC50 (HepG2 [26]): 2540 nM

CCCC(=O)OC[C@H]1O[C@H](OCc2cn([C@@H]3c4cc5c(cc4[C@@H](c4cc(OC)c(O)c(OC)c4)[C@H]4C(=O)OC[C@@H]43)OCO5)nn2)[C@H](OC(=O)CCC)[C@@H](OC(=O)CCC)[C@H]1OC(=O)CCC
IC50 (SMMC-7721): 490 nM | IC50 (A549 [18]): 490 nM | IC50 (SW480): 490 nM | IC50 (MCF7 [9]): 490 nM | IC50 (HL-60): 490 nM

Source: ChEMBL document CHEMBL4818987, “Recent advances of podophyllotoxin/epipodophyllotoxin hybrids in anticancer activity, mode of action, and structure-activity relationship: An update (2010-2020)” (Eur J Med Chem, 2020)
